Test results taken from patent US8067418B2, “Tricyclic angiotensin II agonists” (Vicore Pharma AB, priority 2005, dated 2011).

What was measured:
AT2 receptor = biological target: T1, AT2 receptor (Sus scrofa, UniProt A0A4X1W622); details: read-out: dissociation constant (Kd) at AT2 receptor; Scatchard analysis, porcine myometrial membranes, [L]=0.057 nM
T1 sequence (A0A4X1W622 1-362): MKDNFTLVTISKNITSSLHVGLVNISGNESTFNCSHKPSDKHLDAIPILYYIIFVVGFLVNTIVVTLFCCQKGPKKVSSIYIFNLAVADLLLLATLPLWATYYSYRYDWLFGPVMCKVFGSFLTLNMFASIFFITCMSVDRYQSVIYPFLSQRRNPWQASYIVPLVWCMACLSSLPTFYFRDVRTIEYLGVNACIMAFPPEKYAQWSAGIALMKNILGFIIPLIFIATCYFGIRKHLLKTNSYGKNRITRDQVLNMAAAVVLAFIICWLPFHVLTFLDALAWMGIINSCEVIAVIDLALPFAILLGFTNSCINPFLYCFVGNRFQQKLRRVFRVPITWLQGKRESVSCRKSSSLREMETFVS
Experimental: Myometrial membranes were prepared from porcine uteri according to the method by Nielsen et al (Clin. Exp. Pharm. Phys. (1997) 24, 309). […] Samples were incubated at 25° C. for 1 h, and binding was terminated by filtration through Whatman GF/B glass-fiber filter sheets using a Brandel cell harvester. The filters were washed with 3×3 mL of Tris-HCl (pH 7.4) and transferred to tubes. The radioactivity was measured using a gamma counter. […] The binding data were best fitted with a one-site fit. All experiments were performed at least in triplicate.

duodenal mucosa = test: Test C: duodenal mucosal alkaline secretion assay; assay type: in vivo; details: co-administration with title compounds of the Examples, anaesthetised rats
Excerpt: Duodenal Mucosal Alkaline Secretion Assay
Compounds were exposed to the duodenal mucosa in barbiturate-anaesthetised rats prepared for in situ titration of duodenal mucosal alkaline secretion, according to the methodology described by Flemström et al in Am. J. Physiol. (1982) 243, G348.

Compound	Kd (AT2 receptor) [nM]	effect of co-administration on the mucosal alkalisation stimulated by title compounds (duodenal mucosa)
Asp^1-Arg^2-Val^3-Tyr^4-Ile^5-His^6-Pro^7-Phe^8 [Ang II]	0.7 ± 0.1	
Cc1cc(Cn2cnc3c2C[C@@H](C(=O)O)N(C(=O)C(c2ccccc2)c2ccccc2)C3)ccc1N(C)C [PD123319]		blocked
